The target in series [1] is N-terminal truncated Wee 1 (Homo sapiens, UniProt P30291). Briefly: Wee 1 OY kinase assay. The format is biochemical. As to conditions: read-out: WEE1OY IC50. As for the experimental part:
These kinase assays are carried out on 96-well filter plates (Millpore, Cat. MADPN0B50) in 50 μL kinase assay buffer (50 mM Tris, pH 8.0, 10 mM NaCl, 10 mM MgCl2, 10 μM ATP with 0.25 μCi [r-32P]ATP, 1 mM DTT) with 0.1 μg purified N-terminal truncated Wee 1 and 6 μg poly(Orn, Tyr)4:1 (Sigma, P4534). The assay is started by adding ATP and incubating at room temperature for 20 minutes with shaking. The reactions are terminated by adding 50 μL ice-cold 20% TCA (trichloracetic acid) with 0.1 M sodium pyrophosphate and shaking the resultant mixture for 1 minute. The plate is then incubated at 4° C. for 1 hour to allow protein to precipitate. These plates are then washed 5 times with 200 μL ice-cold 10% TCA and with 0.1 M sodium pyrophosphate per wash. Twenty-five microliters scintillation liquid is then added to each well, and the plate is counted in Wallac's MicroBeta counter 1450.

In the next series the target is C-src kinase (Homo sapiens, UniProt P12931). Briefly: C-src kinase assay. The format is biochemical. As for the experimental part: C-src kinase was purified from baculovirus infected insect cell lysates using an antipeptide monoclonal antibody directed against the N-terminal amino acids (amino acids 2–17) of c-src. The antibody, covalently linked to 0.65 μm latex beads, was added to a suspension of insect cell lysis buffer comprised of 150 mM NaCl, 50 mM Tris pH 7.5, 1 mM DTT, 1% NP-40, 2 mM EGTA, 1 mM sodium vanadate, 1 mM PMSF, 1 μg/mL each of leupeptin, pepstatin, and aprotinin. Insect cell lysate containing c-src protein was incubated with these beads for 3 to 4 hours at 4° C. with rotation. At the end of the lysate incubation, the beads were rinsed three times in lysis buffer, resuspended in lysis buffer containing 10% glycerol, and frozen. These latex beads were thawed, rinsed three times in assay buffer (40 mM Tris, pH 7.5, 5 mM mgCl2) and suspended in the same buffer. In a Millipore 96-well plate with a 0.65 μm polyvinylidine membrane bottom were added the reaction components: 10 μL C-src beads, 10 μL of 2.5 mg/mL poly GluTyr substrate, 5 μM ATP containing 0.2 μCi labeled ^32P-ATP, 5 μL DMSO containing inhibitors or as a solvent control, and buffer to make the final volume 125 μL. The reaction was started at room temperature by addition of the ATP and quenched 10 minutes later by the addition of 125 μL of 30% TCA, 0.1 M sodium pyrophosphate for 5 minutes on ice. The plate was then filtered and the wells washed with two […] aliquots of 15% TCA, 0.1 M pyrophosphate. The filters were then punched, counted in a liquid scintillation counter, and the data examined for inhibitory activity in comparison to a known inhibitor such as erbstatin. The method is also described in J. Med. Chem., 1994;37:598–609.
Chain of C-src kinase (P12931 whole entry, the tested form may be a part): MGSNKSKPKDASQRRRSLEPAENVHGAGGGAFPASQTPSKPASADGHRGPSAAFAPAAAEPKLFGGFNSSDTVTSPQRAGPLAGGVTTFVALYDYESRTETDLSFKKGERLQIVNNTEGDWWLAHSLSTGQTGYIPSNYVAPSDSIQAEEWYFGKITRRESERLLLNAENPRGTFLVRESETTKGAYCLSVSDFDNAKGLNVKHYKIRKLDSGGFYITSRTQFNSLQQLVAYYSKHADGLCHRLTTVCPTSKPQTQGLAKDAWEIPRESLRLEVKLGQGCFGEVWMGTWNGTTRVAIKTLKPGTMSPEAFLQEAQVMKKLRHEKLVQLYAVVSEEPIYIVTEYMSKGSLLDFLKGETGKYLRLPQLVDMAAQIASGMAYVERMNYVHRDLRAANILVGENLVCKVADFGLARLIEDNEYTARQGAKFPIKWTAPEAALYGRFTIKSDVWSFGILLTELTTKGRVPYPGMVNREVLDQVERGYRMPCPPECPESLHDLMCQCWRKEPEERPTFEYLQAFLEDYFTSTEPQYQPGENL

The target of series [2] is T1, human FGF-1 (flg) receptor tyrosine kinase (Homo sapiens, UniProt P11362).
T1 construct: amplify a fragment of DNA that codes for the intracellular tyrosine kinase domain; made in house; host or cells: SF9 insect cells (baculovirus)
T1 sequence (P11362 478-767 limits assumed): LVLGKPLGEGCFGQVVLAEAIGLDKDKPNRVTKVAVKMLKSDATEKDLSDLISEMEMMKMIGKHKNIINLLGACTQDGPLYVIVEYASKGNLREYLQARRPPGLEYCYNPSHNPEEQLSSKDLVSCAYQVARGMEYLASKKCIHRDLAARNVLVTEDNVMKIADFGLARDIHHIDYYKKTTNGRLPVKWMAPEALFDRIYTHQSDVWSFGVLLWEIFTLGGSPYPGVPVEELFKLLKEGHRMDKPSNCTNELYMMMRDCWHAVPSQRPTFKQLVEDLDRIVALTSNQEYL
Briefly: FGF receptor tyrosine kinase assay. Format: biochemical. As to conditions: for inhibition at 5 µM: @ 5 (unit μm), read-out: FGF % @ concentration. From the text: (§1) Full-length cDNAs for the mouse PDGF-β and human FGF-1 (flg) receptor tyrosine kinases were obtained from J. Escobedo and prepared as described in J. Biol. Chem., 1991;262:1482–1487. PCR primers were designed to amplify a fragment of DNA that codes for the intracellular tyrosine kinase domain. The fragment was inserted into a baculovirus vector, cotransfected with AcMNPV DNA, and the recombinant virus isolated. SF9 insect cells were infected with the virus to overexpress the protein, and the cell lysate was used for the assay. Assays were performed in 96-well plates (100 μL/incubation/well), and conditions were optimized to measure the incorporation of ^32P from γ^32P-ATP into a glutamate-tyrosine co-polymer substrate. Briefly, to each well was added 82.5 μL of incubation buffer containing 25 mM Hepes (pH 7.0), 150 mM NaCl, 0.1% Triton X-100, 0.2 mM PMSF, 0.2 mM Na3VO4, 10 mM MnCl2, and 750 μg/mL of Poly (4:1) glutamate-tyrosine followed by 2.5 μL of inhibitor and 5 μL of enzyme lysate (7.5 μg/μL FGF-TK or 6.0 μg/μL PDGF-TK) to initiate the reaction. Following a 10 minute incubation at 25° C., […] of γ^32P-ATP (0.4 μCi plus 50 μM ATP) was added to each well, and samples were incubated for an additional 10 minutes at 25° C. The reaction was terminated by the addition of 100 μL of 30% TCA containing 20 mM sodium pyrophosphate and precipitation of material onto glass fiber mats (Wallac). Filters were washed three times with 15% TCA containing 100 mM sodium pyrophosphate, and the radioactivity retained on the filters counted in a Wallac 1250 Betaplate reader. Nonspecific activity was defined as radioactivity retained on the filters following incubation of samples with buffer alone (no enzyme). Specific enzymatic activity (enzyme plus buffer) was defined as total activity minus nonspecific activity. The concentration of a compound that inhibited specific activity by 50% (IC50) was determined based on the inhibition curve.

In series [3] the target is T2, mouse PDGF-β receptor tyrosine kinase (Mus musculus, UniProt P05622).
T2 construct: amplify a fragment of DNA that codes for the intracellular tyrosine kinase domain; made in house; host or cells: SF9 insect cells (baculovirus)
T2 sequence (P05622 599-961 limits assumed): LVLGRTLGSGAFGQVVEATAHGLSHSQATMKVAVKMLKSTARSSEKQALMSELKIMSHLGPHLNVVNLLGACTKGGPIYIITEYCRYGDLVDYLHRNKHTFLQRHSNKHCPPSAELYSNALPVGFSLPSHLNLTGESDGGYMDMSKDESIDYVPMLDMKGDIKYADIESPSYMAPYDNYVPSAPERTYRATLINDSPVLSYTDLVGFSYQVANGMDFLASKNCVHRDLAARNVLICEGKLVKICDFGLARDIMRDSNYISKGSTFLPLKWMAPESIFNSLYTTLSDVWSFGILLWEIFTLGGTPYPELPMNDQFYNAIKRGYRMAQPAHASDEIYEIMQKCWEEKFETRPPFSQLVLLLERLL
Briefly: PDGF receptor tyrosine kinase assay. Format: biochemical.
Excerpt: as §1

Bounds are passed on as bounds.

Chain of N-terminal truncated Wee 1 (P30291 299-569 limits assumed): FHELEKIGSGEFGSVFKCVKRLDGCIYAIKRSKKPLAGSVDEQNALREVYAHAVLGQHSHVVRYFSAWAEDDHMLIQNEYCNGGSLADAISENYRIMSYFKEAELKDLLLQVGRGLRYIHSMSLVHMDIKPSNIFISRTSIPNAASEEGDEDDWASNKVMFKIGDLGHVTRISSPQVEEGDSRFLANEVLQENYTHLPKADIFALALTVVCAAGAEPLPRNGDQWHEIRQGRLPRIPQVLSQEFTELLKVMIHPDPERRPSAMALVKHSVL

For orientation: IC50 means the concentration needed to halve the response being measured. For orientation: melting point means the temperature, or range, at which the solid turns liquid. As to `Cn1c(=O)c(-c2ccccc2)nc2cnc(Nc3ccc(N4CCOCC4)cc3)nc21` [Compound 1], the melting point lay in the range of 302 to 304.5 °C. Further, the half-maximal inhibitory concentration (IC50) in series [1] is above 50 µM. At C-src kinase, this compound came in with a half-inhibitory concentration (IC50) above 50 µM. The same compound gave a half-inhibitory concentration (IC50) in series [2] above 50 µM. Further, the half-maximal inhibitory concentration (IC50) in series [3] is above 50 µM.

In the case of `Cn1c(=O)c(-c2c(Cl)cccc2Cl)nc2cnc(Nc3ccc(N4CCOCC4)cc3)nc21` [Compound 2, 6-(2,6-Dichlorophenyl)-8-methyl-2-[[4-(morpholin-4-yl)phenyl]amino]-8H-pteridin-7-one], the melting point was 292 to 293 °C. Also, the IC50 in series [1] worked out at 0.144 µM. This compound also returned a half-maximal inhibitory concentration (IC50) against C-src kinase of 0.057 µM. The same compound came in with an IC50 in series [2] above 50 µM. Also, half-maximal inhibition in series [3] (IC50) required 7.7 µM.

Consider `CCN(CC)CCOc1ccc(Nc2ncc3nc(-c4ccccc4)c(=O)n(C)c3n2)cc1` [Compound 3, 2-[[4-[2-(Diethylamino)ethoxy]phenyl]amino]-8-methyl-6-phenyl-8H-pteridin-7-one], for which the melting point lay in the range of 162 to 165 °C. In series [1], the IC50 was above 50 µM. This compound also displayed a half-inhibitory concentration (IC50) against C-src kinase of 1.53 µM. Also, the inhibition at 5 µM in series [2] came out at 54%. The compound further returned a half-maximal inhibitory concentration (IC50) in series [3] of 7.55 µM.

Regarding `CCN(CC)CCOc1ccc(Nc2ncc3nc(-c4c(Cl)cccc4Cl)c(=O)n(C)c3n2)cc1` [Compound 4, 6-(2,6Dichlorophenyl)-2-[[4-[2-(diethylamino)ethoxy]phenyl]amino]-8-methyl-8H-pteridin-7-one], the melting point was 156 to 161 °C. Also, the half-inhibitory concentration (IC50) in series [1] is 0.861 µM. This compound yielded an IC50 at C-src kinase of 0.015 µM. The inhibition at 5 µM in series [2] turned out to be 69%. Further, inhibition in series [3] was half-maximal at 0.7 µM (IC50).

In turn, `CCN(CC)C(=O)c1ccc(Nc2ncc3nc(-c4ccccc4)c(=O)n(C)c3n2)cc1` [Compound 5, 2-[[4-(Diethylaminocarbonyl)phenyl]amino]-8-methyl-6-phenyl-8H-pteridin-7-one] showed a melting point of 250 to 252 °C. In addition, the IC50 in series [1] was above 50 µM. Further, at C-src kinase, the half-maximal inhibitory concentration (IC50) was above 50 µM. The inhibition at 5 µM in series [2] amounted to 38%. The compound also showed an IC50 in series [3] above 50 µM.

Compound `Cn1c(=O)c(-c2c(Cl)cncc2Cl)nc2cnc(Nc3ccc(N4CCOCC4)cc3)nc21` [Compound 12, 6-(3,5-Dichloropyridin-4-yl)-8-methyl-2-[[4-(morpholin-4-yl)phenyl]amino]-8H-pteridin-7-one] yielded a melting point of 243 to 245 °C. Moreover, in series [1], the IC50 stood at 1.01 µM. The compound further gave a 50% inhibitory concentration (IC50) on C-src kinase of 0.38 µM. The IC50 in series [3] came to 25.4 µM.

Consider `CCN(CC)C(=O)c1ccc(Nc2ncc3nc(-c4c(Cl)cncc4Cl)c(=O)n(C)c3n2)cc1` [Compound 13, 6-(3,5-Dichloropyridin-4yl)-2-[[4-(diethylaminocarbonyl)phenyl]-amino]-8-methyl-8H-pteridin-7-one], for which the melting point lay in the range of 230 to 231 °C. Besides, the half-inhibitory concentration (IC50) in series [1] stood at 4.49 µM. The compound also had an IC50 on C-src kinase of 0.5 µM. Further, the inhibition at 5 µM in series [2] is 17%.

`CCN(CC)CCOc1ccc(Nc2ncc3nc(-c4cc(OC)cc(OC)c4)c(=O)n(CC)c3n2)cc1` [Compound 14, 6-(3,5-Dimethoxyphenyl)-8-ethyl-2-[[4-[2-(diethylamino)ethoxyl]-phenyl]amino]-8H-pteridin-7-one] showed a melting point of 154 to 155 °C. This compound also returned an IC50 in series [2] of 30 µM.

`CCn1c(=O)c(-c2cc(OC)cc(OC)c2)nc2cnc(Nc3ccncc3)nc21` [Compound 15, 6-(3,5-Dimethoxyphenyl)-8-ethyl-2-[(pyridin-4-yl)amino]-8H-pteridin-7-one] had a melting point of 245 to 246.5 °C.

For the compound `COc1nc(OC)c(Cl)c(-c2nc3cnc(Nc4ccc(N5CCOCC5)cc4)nc3n(C)c2=O)c1Cl` [Compound 18, 6-(3,5-Dichloro-2,6-dimethoxypyridin-4-yl)-8-methyl-2-[[4-(morpholin-4-yl)phenyl]amino]-8H-pteridin-7-one], the melting point was in the range of 275 to 276 °C. Moreover, the IC50 in series [1] is above 50 µM. Half-maximal inhibition against C-src kinase (IC50) required 20 µM. In series [2], this compound showed an IC50 of 0.23 µM.

Compound `Cn1c(=O)c(-c2c(Br)cncc2Br)nc2cnc(Nc3ccc(N4CCOCC4)cc3)nc21` [Compound 19, 6-(3,5-Dibromopyridin-4-yl)-8-methyl-2-[[4-(morpholin-4-yl)phenyl]amino]-8H-pteridin-7-one] registered a melting point of 204 to 206 °C. In addition, the IC50 in series [1] came out at 7.4 µM. In addition, the half-inhibitory concentration (IC50) at C-src kinase was 1.45 µM.

Compound `CCN(CC)CCOc1ccc(Nc2ncc3nc(-c4c(Cl)cncc4Cl)c(=O)n(C)c3n2)cc1` [Compound 20, 6-(3,5-Dichloropyridin-4-yl)-8-methyl-2-[[4-[2-(diethylamino)ethoxy]-phenyl]amino]-8H-pteridin-7-one] showed a melting point of 179 to 180.5 °C. Further, the IC50 in series [1] is 7.07 µM. Besides, on C-src kinase, inhibition was half-maximal at 0.12 µM (IC50).

With `CCN(CC)CCOc1ccc(Nc2ncc3nc(-c4c(Cl)c(OC)nc(OC)c4Cl)c(=O)n(C)c3n2)cc1` [Compound 21, 6-(3,5-Dichloro-2,6-dimethoxypyridin-4-yl)-8-methyl-2-[[4-[2-(diethylamino)ethoxy]phenyl]amino]-8H-pteridin-7-one], the 50% inhibitory concentration (IC50) was above 50 µM in series [1], 6.8 µM against C-src kinase and 0.054 µM in series [2].

With `CCN(CC)C(=O)c1ccc(Nc2ncc3nc(-c4c(Cl)c(OC)nc(OC)c4Cl)c(=O)n(C)c3n2)cc1` [Compound 22, 6-(3,5Dichloro-2,6-dimethoxypyridin-4-yl)-2-[[4-(diethylaminocarbonyl)phenyl]amino]-8-methyl-8H-pteridin-7-one], the melting point fell in the range of 274 to 276 °C. In addition, the IC50 in series [1] was above 50 µM. Moreover, half-maximal inhibition on C-src kinase (IC50) was put at 47 µM. In series [2], this compound came in with a half-inhibitory concentration (IC50) of 0.16 µM.

For `O=c1[nH]c2cnc(Nc3ccc(N4CCOCC4)cc3)nc2n(C2CCCC2)c1=O` [Compound 23, 8-Cyclopentyl-2-[[4-(morpholin-4-yl]phenyl]amino]-5H,8H-pteridine-6,7-dione], the melting point lay within 283 to 286 °C.

`CN1CCN(c2ccc(Nc3ncc4[nH]c(=O)c(=O)n(C5CCCC5)c4n3)cc2)CC1` [Compound 24, 8-Cyclopentyl-2-[[4-(4-methylpiperazin-1-yl)phenyl]amino]-5H,8H-pteridine-6,7-dione] had a melting point of 266 to 270 °C. For the same compound, at C-src kinase, the IC50 worked out at 4.35 µM.
